The values below come from ChEMBL document CHEMBL5233247, “Recent advances in DNA gyrase-targeted antimicrobial agents” (Eur J Med Chem, 2020).

Values after ≈ are worked out from the molar mass of the structure shown. Values joined by “and” are separate entries in the source; they are usually repeats but may differ in a detail not shown here. Identical values can stand only once.

Experiment [1] deals with DNA gyrase (Escherichia coli, UniProt P0AES4+P0AES6). Briefly: Inhibition of Escherichia coli DNA gyrase. Type of experiment: protein-complex assay.
For experiment [2], the system named is Escherichia coli. The experiment in a line: Antibacterial activity against Escherichia coli assessed as zone of inhibition. It is filed as functional.
Experiment [3] relates to Escherichia coli. Briefly: Antibacterial activity against Escherichia coli. Type of experiment: functional.
In experiment [4] the test system is Bacillus subtilis. Briefly: Antibacterial activity against Bacillus subtilis. It is filed as functional.
The subject of experiment [5] is Micrococcus luteus. The experiment in a line: Antibacterial activity against Micrococcus luteus. It is filed as functional.
For the next experiment, the system named is Salmonella typhimurium. Briefly: Antibacterial activity against Salmonella typhimurium. It is filed as functional, Salmonella enterica subsp. enterica serovar Typhimurium. The following applies: Salmonella enterica.
The subject of experiment [6] is Staphylococcus aureus. The experiment in a line: Antimicrobial activity against Staphylococcus aureus ATCC 4163 incubated for by the twofold serial agar dilution technique. Type of experiment: functional. For orientation: In agar dilution, organisms are placed on agar that contains the substance at set levels.
The subject of experiment [7] is Staphylococcus aureus. The experiment in a line: Antimicrobial activity against Staphylococcus aureus ATCC 25923 incubated for by the twofold serial agar dilution technique. Type of experiment: functional.
For experiment [8], the system named is Staphylococcus aureus. Briefly: Antimicrobial activity against Staphylococcus aureus ATCC 29213 incubated for by the twofold serial agar dilution technique. It is filed as functional.
For experiment [9], the system named is Staphylococcus aureus. The experiment in a line: Antimicrobial activity against Staphylococcus aureus ATCC 6538 incubated for by the twofold serial agar dilution technique. It is filed as functional.
Another experiment concerns Bacillus cereus. Briefly: Antimicrobial activity against Bacillus cereus ATCC 11778 incubated for by the twofold serial agar dilution technique. Type of experiment: functional.
Experiment [10] deals with Staphylococcus epidermidis. Briefly: Antimicrobial activity against Staphylococcus epidermidis ATCC 12228 incubated for by the twofold serial agar dilution technique. Type of experiment: functional.
Experiment [11] relates to Bacillus subtilis. Briefly: Antimicrobial activity against Bacillus subtilis ATCC 6633 incubated for by the twofold serial agar dilution technique. Type of experiment: functional.
Experiment [12] deals with Micrococcus luteus. Briefly: Antimicrobial activity against Micrococcus luteus ATCC 9341 incubated for by the twofold serial agar dilution technique. It is filed as functional.
Experiment [13] relates to Micrococcus luteus. Briefly: Antimicrobial activity against Micrococcus luteus ATCC 10240 incubated for by the twofold serial agar dilution technique. It is filed as functional.
Experiment [14] concerns Staphylococcus aureus. The experiment in a line: Antimicrobial activity against methicillin-resistant Staphylococcus aureus MTCC 96. Type of experiment: functional.
For experiment [15], the system named is Staphylococcus aureus. The experiment in a line: Antimicrobial activity against Staphylococcus aureus assessed as inhibition of visible growth incubated for 24 hrs by agar-dilution method. It is filed as functional.
For another experiment, the system named is Listeria monocytogenes. The experiment in a line: Antimicrobial activity against Listeria monocytogenes assessed as inhibition of visible growth incubated for 24 hrs by agar-dilution method. It is filed as functional.
Experiment [16] deals with Escherichia coli. Briefly: Antimicrobial activity against Escherichia coli assessed as inhibition of visible growth incubated for 24 hrs by agar-dilution method. Type of experiment: functional.
Experiment [17] deals with Salmonella enterica subsp. enterica serovar Gallinarum. The experiment in a line: Antimicrobial activity against Salmonella gallinarum assessed as inhibition of visible growth incubated for 24 hrs by agar-dilution method. Type of experiment: functional.
For experiment [18], the system named is Enterococcus faecalis. The experiment in a line: Antimicrobial activity against Enterococcus faecalis. It is filed as functional.
For experiment [19], the system named is Enterococcus faecalis. The experiment in a line: Antimicrobial activity against vancomycin-sensitive Enterococcus faecalis assessed as inhibition of bacterial growth by CLSI broth micro plate assay. Type of experiment: functional.
Experiment [20] has as its system Enterococcus faecalis. Briefly: Antimicrobial activity against vancomycin-resistant Enterococcus faecalis assessed as inhibition of bacterial growth by CLSI broth micro plate assay. Type of experiment: functional.
Experiment [21] concerns Staphylococcus aureus. Briefly: Antimicrobial activity against methicillin-sensitive Staphylococcus aureus assessed as inhibition of bacterial growth by CLSI broth micro plate assay. It is filed as functional.
The subject of experiment [22] is Staphylococcus aureus. The experiment in a line: Antimicrobial activity against methicillin-resistant Staphylococcus aureus assessed as inhibition of bacterial growth by CLSI broth micro plate assay. Type of experiment: functional.
The target in experiment [23] is T1, DNA gyrase (Staphylococcus aureus, UniProt P0A0K8+P20831). The experiment in a line: Inhibition of Staphylococcus aureus DNA gyrase assessed as relaxation of pBR322 DNA by supercoiling assay. Type of experiment: protein-complex assay.
T1 sequence (P0A0K8 whole entry): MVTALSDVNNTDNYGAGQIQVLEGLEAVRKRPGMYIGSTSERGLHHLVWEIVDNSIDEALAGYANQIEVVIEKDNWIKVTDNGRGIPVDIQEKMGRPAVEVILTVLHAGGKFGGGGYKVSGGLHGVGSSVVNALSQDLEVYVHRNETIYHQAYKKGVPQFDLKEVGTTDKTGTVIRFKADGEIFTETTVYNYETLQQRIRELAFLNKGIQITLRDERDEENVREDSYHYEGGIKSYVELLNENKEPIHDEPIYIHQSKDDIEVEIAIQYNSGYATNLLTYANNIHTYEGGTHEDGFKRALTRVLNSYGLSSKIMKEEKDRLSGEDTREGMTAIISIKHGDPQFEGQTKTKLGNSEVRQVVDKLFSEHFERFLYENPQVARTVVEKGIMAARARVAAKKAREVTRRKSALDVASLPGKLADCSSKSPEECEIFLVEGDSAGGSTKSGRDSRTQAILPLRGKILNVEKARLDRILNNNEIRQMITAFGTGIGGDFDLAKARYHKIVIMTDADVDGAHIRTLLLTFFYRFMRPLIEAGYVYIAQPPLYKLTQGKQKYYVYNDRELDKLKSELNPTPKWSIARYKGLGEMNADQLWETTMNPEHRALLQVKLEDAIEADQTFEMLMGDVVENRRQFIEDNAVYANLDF
T1 sequence (P20831 whole entry): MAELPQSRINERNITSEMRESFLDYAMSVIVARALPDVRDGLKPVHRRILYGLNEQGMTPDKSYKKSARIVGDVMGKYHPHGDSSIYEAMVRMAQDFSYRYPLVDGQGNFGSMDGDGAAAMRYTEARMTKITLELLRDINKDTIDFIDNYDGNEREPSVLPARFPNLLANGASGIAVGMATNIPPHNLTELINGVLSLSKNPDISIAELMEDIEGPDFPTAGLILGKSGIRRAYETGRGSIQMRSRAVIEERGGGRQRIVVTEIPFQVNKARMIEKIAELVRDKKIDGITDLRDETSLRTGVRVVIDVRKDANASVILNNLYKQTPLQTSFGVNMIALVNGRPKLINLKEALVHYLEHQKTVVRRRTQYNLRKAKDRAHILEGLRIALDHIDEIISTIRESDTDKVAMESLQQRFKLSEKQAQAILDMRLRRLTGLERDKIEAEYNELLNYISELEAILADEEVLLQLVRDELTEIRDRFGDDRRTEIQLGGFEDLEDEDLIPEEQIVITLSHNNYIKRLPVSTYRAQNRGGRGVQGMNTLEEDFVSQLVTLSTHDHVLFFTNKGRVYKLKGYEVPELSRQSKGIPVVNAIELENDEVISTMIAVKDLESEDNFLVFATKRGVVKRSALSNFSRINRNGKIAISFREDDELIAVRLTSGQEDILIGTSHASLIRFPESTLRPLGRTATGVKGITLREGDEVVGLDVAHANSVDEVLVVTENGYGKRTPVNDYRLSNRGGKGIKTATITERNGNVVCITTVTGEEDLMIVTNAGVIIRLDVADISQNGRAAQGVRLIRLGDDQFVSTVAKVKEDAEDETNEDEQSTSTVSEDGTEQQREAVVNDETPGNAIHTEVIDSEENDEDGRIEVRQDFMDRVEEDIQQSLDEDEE
Experiment [24] addresses T1, DNA gyrase. The experiment in a line: Inhibition of Staphylococcus aureus DNA gyrase. Type of experiment: protein-complex assay.
Experiment [25] concerns Escherichia coli. The experiment in a line: Antimicrobial activity against Escherichia coli MTCC 443 assessed as zone of inhibition incubated for 24 hrs by agar well diffusion method. Type of experiment: functional.
For a further experiment, the system named is Pseudomonas aeruginosa. Briefly: Antimicrobial activity against Pseudomonas aeruginosa MTCC 424 assessed as zone of inhibition incubated for 24 hrs by agar well diffusion method. Type of experiment: functional. Background: A growth-free zone around the sample is the usual read-out of agar diffusion tests.
The test system of experiment [26] is Staphylococcus aureus. Briefly: Antimicrobial activity against Staphylococcus aureus MTCC 96 assessed as zone of inhibition incubated for 24 hrs by agar well diffusion method. Type of experiment: functional.
For the next experiment, the system named is Streptococcus pyogenes. Briefly: Antimicrobial activity against […] MTCC 442 assessed as zone of inhibition incubated for 24 hrs by agar well diffusion method. Type of experiment: functional.

`CCn1cc(-c2nc(/N=C/c3ccc(Br)cc3)n[nH]2)c(=O)c2cc(Br)c(C)nc21` gave an IC50 on DNA gyrase [1] of 3.37 µM. Moreover, in the experiment on Escherichia coli [2], the “inhibition zone (IZ)” value amounted to 23 mm.

For `COc1c(NC(=O)c2ccc(NC(=O)c3ccc(NC(=O)[C@H](CC#N)NC(=O)c4ccc(NC(=O)/C(C)=C/c5ccc(C(F)(F)F)cc5)cc4)cc3)c(OC)c2O)ccc(C(=O)O)c1O`, the MIC against Escherichia coli [3] is 0.14 µM (≈ 0.125 µg/mL); with Bacillus subtilis [4], 0.28 µM (≈ 0.251 µg/mL); in the experiment on Micrococcus luteus [5], 0.238 µM and 0.112 µM; against Salmonella typhimurium, 0.07 µM (≈ 0.0626 µg/mL).

For the compound `S=C(NCCc1c[nH]c2ccccc12)Nc1ccc(Cl)c(Cl)c1`, the MIC against Staphylococcus aureus [6] is 6.25 µg/mL (≈ 17.2 µM); in the experiment with Staphylococcus aureus [7], 6.25 µg/mL (≈ 17.2 µM); against Staphylococcus aureus [8], 6.25 µg/mL (≈ 17.2 µM); in the experiment on Staphylococcus aureus [9], 6.25 µg/mL (≈ 17.2 µM); with Bacillus cereus, 6.25 µg/mL (≈ 17.2 µM); in experiment [10], 12.5 µg/mL (≈ 34.3 µM). The minimum inhibitory concentration (MIC) came to 12.5 µg/mL (≈ 34.3 µM) against Bacillus subtilis [11], 6.25 µg/mL (≈ 17.2 µM) against Micrococcus luteus [12] and 6.25 µg/mL (≈ 17.2 µM) against Micrococcus luteus [13].

Take `Cc1ccc(C(=O)Nc2ccc(NC(=O)CCC(=O)NN)cc2)o1`: 18.9 µM (≈ 6.25 µg/mL) was the least that counted as inhibitory in the experiment on Staphylococcus aureus [14] (MIC).

In the case of `Cc1ccc(-n2nc(C)c(C(=O)Oc3ncn(-c4ccccc4)n3)c2Cl)cc1`, the MIC (in the experiment with Staphylococcus aureus [15]; with Listeria monocytogenes; with Escherichia coli [16]; in experiment [17]) was 0.5 µg/mL (≈ 1.27 µM) each time.

With `CC(C)COc1cc(C(=O)NCC(=O)O)ccc1NC(=O)c1cc(Cl)c(Cl)[nH]1`, the IC50 at DNA gyrase [1] is 47 µM. In the experiment with Enterococcus faecalis [18], the MIC came out at 12.5 µM (≈ 5.35 µg/mL).

Take `COc1cc2c(cc1OCCCC(=O)Nc1cc(NC(=O)c3ccc4sccc4c3)n(C)c1)N=C[C@@H]1CCCN1C2=O`: the minimum inhibitory concentration (MIC) with Enterococcus faecalis [19], with Enterococcus faecalis [20], in the experiment with Staphylococcus aureus [21] and with Staphylococcus aureus [22] was 0.5 µg/mL (≈ 0.854 µM) in each case. Besides, at DNA gyrase [23], the IC50 was 1.62 µM.

As to `COc1ccc2ccc(F)c(CC(=O)N/N=C/c3ccc(F)cc3F)c2n1`, 375 µM corresponded to half-maximal inhibition at DNA gyrase [24] (IC50). The “inhibition zone (IZ)” value with Escherichia coli [25] was 21 mm; in the experiment with Pseudomonas aeruginosa it was 20 mm; in the experiment on Staphylococcus aureus [26] it was 18 mm; with Streptococcus pyogenes, 20 mm.

A word on the IC50: it is the concentration needed to halve the response being measured. A word on the MIC: it is the lowest concentration found to suppress growth.
